According to patent US9695155B2, “Herbicidal substituted pyrimidinyloxy benzene compounds” (E. I. DU PONT DE NEMOURS AND COMPANY, priority 2013, dated 2017):

How the values were obtained:
[1] = system: pigweed; assay: Test D preemergence; type: in vivo, Amaranthus retroflexus; conditions: Amaranthus retroflexus, pre-emergence
Excerpt: (§1) Seeds of plant species selected from bluegrass (annual bluegrass, Poa annua), blackgrass (Alopecurus myosuroides), canarygrass (littleseed canarygrass, Phalaris minor), chickweed (common chickweed, Stellaria media), galium (catchweed bedstraw, Galium aparine), bromegrass, downy (downy bromegrass, Bromus tectorum), field poppy (Papaver rhoeas), field violet (Viola arvensis), green foxtail (Setaria viridis), deadnettle (henbit deadnettle, Lamium amplexicaule), Italian ryegrass (Lolium multiflorum), kochia (Kochia scoparia), lambsquarters (Chenopodium album), oilseed rape (Brassica napus), pigweed (Amaranthus retroflexus), chamomile (scentless chamomile, Matricaria inodora), Russian thistle (Salsola kali), speedwell (bird's-eye speedwell, Veronica persica), spring barley (Hordeum vulgare), spring wheat (Triticum aestivum), wild buckwheat (Polygonum convolvulus), wild mustard (Sinapis arvensis), wild oat (Avena fatua), wild radish (Raphanus raphanistrum), windgrass (Apera spica-venti), winter barley (Hordeum vulgare), and winter wheat (Triticum aestivum) were planted into a silt loam soil and treated preemergence with test chemicals formulated in a non-phytotoxic solvent mixture which included a surfactant.
(§2) At the same time, these species were planted in pots containing Redi-Earth® planting medium (Scotts Company, 14111 Scottslawn Road, Marysville, Ohio 43041) comprising spaghnum peat moss, vermiculite, wetting agent and starter nutrients and treated with postemergence applications of the test chemicals formulated in the same manner. Plants ranged in height from 2 to 18 cm (1- to 4-leaf stage). Treated plants and controls were maintained in a controlled growth environment for 7 to 21 days after which time all species were compared to controls and visually evaluated. Plant response ratings, summarized in Table D, are based on a scale of 0 to 100 where 0 is no effect and 100 is complete control. A dash (-) response means no test result.

[2] = system: wild buckwheat; assay: Test D preemergence; type: in vivo, Polygonum convolvulus; conditions: Fallopia convolvulus, pre-emergence, scale 0-100, read-out: Plant response rating, Buckwheat, Wild
Excerpt: as §1, §2

[3] = system: field violet; assay: Test D preemergence; type: in vivo, Viola arvensis; conditions: Viola arvensis, pre-emergence, scale 0-100, read-out: Plant response rating, Field Violet
Excerpt: as §1, §2

[4] = system: kochia; assay: Test D preemergence; type: in vivo, Kochia scoparia; conditions: Bassia scoparia, pre-emergence, scale 0-100, read-out: Plant response rating, Kochia
Excerpt: as §1, §2

[5] = system: speedwell; assay: Test D postemergence; type: in vivo, Veronica persica; conditions: Veronica persica, post-emergence, scale 0 to 100 (0 no effect, 100 complete control), read-out: Plant response rating, Speedwell
Excerpt: as §1, §2

[6] = system: chamomile; assay: Test D postemergence; type: in vivo, Matricaria inodora; conditions: Tripleurospermum inodorum, post-emergence, scale 0 to 100 (0 no effect, 100 complete control), read-out: Plant response rating, Chamomile
Excerpt: as §1, §2

[7] = system: chickweed; assay: Test D postemergence; type: in vivo, Stellaria media; conditions: Stellaria media, post-emergence, scale 0 to 100 (0 no effect, 100 complete control), read-out: Plant response rating, Chickweed
Excerpt: as §1, §2

[8] = system: pigweed; assay: Test D postemergence; type: in vivo, Amaranthus retroflexus; conditions: Amaranthus retroflexus, post-emergence, scale 0 to 100 (0 no effect, 100 complete control), read-out: Plant response rating, Pigweed
Excerpt: as §1, §2

[9] = system: lambsquarters; assay: Test D postemergence; type: in vivo, Chenopodium album; conditions: Chenopodium album, post-emergence, scale 0 to 100 (0 no effect, 100 complete control), read-out: Plant response rating, Lambsquarters
Excerpt: as §1, §2

[10] = system: wild oat; assay: Test D preemergence; type: in vivo, Avena fatua; conditions: Avena fatua, pre-emergence, scale 0-100, read-out: Plant response rating, Oat, Wild
Excerpt: as §1, §2

[11] = system: lambsquarters; assay: Test D preemergence; type: in vivo, Chenopodium album; conditions: Chenopodium album, pre-emergence, scale 0-100, read-out: Plant response rating, Lambsquarters
Excerpt: as §1, §2

N#Cc1cccc(Oc2ncc(Cl)cn2)c1-n1cc(Br)cn1 [Compound 52, 2-(4-bromo-1H-pyrazol-1-yl)-3-[(5-chloro-2-pyrimidinyl)oxy]benzonitrile]
pest or weed control at 31 g/ha ([1]; 31 g ai/ha, scale 0 (no effect) to 100 (complete control), read-out: Plant response rating, Pigweed): 100% | pest or weed control at 62 g/ha ([1]; 62 g ai/ha, scale 0-100, read-out: Plant response rating, Pigweed): 100% | pest or weed control at 125 g/ha ([1]; 125 g ai/ha, scale 0-100, read-out: Plant response rating, Pigweed): 100% | pest or weed control at 250 g/ha ([1]; 250 g ai/ha, scale 0-100, read-out: Plant response rating, Pigweed): 100% | pest or weed control at 31 g/ha ([2]; 31 g ai/ha): 10% | pest or weed control at 62 g/ha ([2]; 62 g ai/ha): 50% | pest or weed control at 125 g/ha ([2]; 125 g ai/ha): 100% | pest or weed control at 250 g/ha ([2]; 250 g ai/ha): 100% | pest or weed control at 31 g/ha ([3]; 31 g ai/ha): 75% | pest or weed control at 62 g/ha ([3]; 62 g ai/ha): 95% | pest or weed control at 125 g/ha ([3]; 125 g ai/ha): 100% | pest or weed control at 250 g/ha ([3]; 250 g ai/ha): 100% | pest or weed control at 31 g/ha ([4]; 31 g ai/ha): 95% | pest or weed control at 62 g/ha ([4]; 62 g ai/ha): 95% | pest or weed control at 125 g/ha ([4]; 125 g ai/ha): 95% | pest or weed control at 250 g/ha ([4]; 250 g ai/ha): 95% | pest or weed control at 31 g/ha ([5]; 31 g ai/ha): 70% | pest or weed control at 62 g/ha ([5]; 62 g ai/ha): 95% | pest or weed control at 125 g/ha ([5]; 125 g ai/ha): 100% | pest or weed control at 250 g/ha ([5]; 250 g ai/ha): 100% | pest or weed control at 31 g/ha ([6]; 31 g ai/ha): 10% | pest or weed control at 62 g/ha ([6]; 62 g ai/ha): 15% | pest or weed control at 125 g/ha ([6]; 125 g ai/ha): 20% | pest or weed control at 250 g/ha ([6]; 250 g ai/ha): 15% | pest or weed control at 31 g/ha ([7]; 31 g ai/ha): 60% | pest or weed control at 62 g/ha ([7]; 62 g ai/ha): 70% | pest or weed control at 125 g/ha ([7]; 125 g ai/ha): 85% | pest or weed control at 250 g/ha ([7]; 250 g ai/ha): 90% | pest or weed control at 31 g/ha ([8]; 31 g ai/ha): 80% | pest or weed control at 62 g/ha ([8]; 62 g ai/ha): 85% | pest or weed control at 125 g/ha ([8]; 125 g ai/ha): 85% | pest or weed control at 250 g/ha ([8]; 250 g ai/ha): 95% | pest or weed control at 31 g/ha ([9]; 31 g ai/ha): 80% | pest or weed control at 62 g/ha ([9]; 62 g ai/ha): 75% | pest or weed control at 125 g/ha ([9]; 125 g ai/ha): 75% | pest or weed control at 250 g/ha ([9]; 250 g ai/ha): 95% | pest or weed control at 31 g/ha ([10]; 31 g ai/ha): 0% | pest or weed control at 62 g/ha ([10]; 62 g ai/ha): 0% | pest or weed control at 125 g/ha ([10]; 125 g ai/ha): 0% | pest or weed control at 250 g/ha ([10]; 250 g ai/ha): 20% | pest or weed control at 31 g/ha ([11]; 31 g ai/ha): 80% | pest or weed control at 62 g/ha ([11]; 62 g ai/ha): 100% | pest or weed control at 125 g/ha ([11]; 125 g ai/ha): 100% | pest or weed control at 250 g/ha ([11]; 250 g ai/ha): 100%
